In PubChem BioAssay (NCI):
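Five compound concentrations were applied to cells in 96-well plates for 48 hours; endpoints were derived by simple linear interpolation of the resulting dose-response curve. Abbreviation: GI50, concentration required for 50% inhibition of growth. TGI is the concentration that stops growth completely.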

Columns and labels:
Experiment in all cases: DTP human tumour cell line panel, 48 h
M14 melanoma = tested on: M14 melanoma
SNB-19 CNS = tested on: SNB-19 CNS
HT29 colon = tested on: HT29 colon
CCRF-CEM leukemia = tested on: CCRF-CEM leukemia
SF-268 CNS = tested on: SF-268 CNS
MCF7 breast = tested on: MCF7 breast
MDA-MB-435 = tested on: MDA-MB-435
ACHN renal = tested on: ACHN renal
UO-31 renal = tested on: UO-31 renal
EKVX NSCLC = tested on: EKVX NSCLC
SF-295 CNS = tested on: SF-295 CNS
MDA-MB-231 breast = tested on: MDA-MB-231 breast
LOX IMVI melanoma = tested on: LOX IMVI melanoma
HS 578T breast = tested on: HS 578T breast
RXF 393 renal = tested on: RXF 393 renal
HOP-62 NSCLC = tested on: HOP-62 NSCLC
TK-10 renal = tested on: TK-10 renal
HCT-15 colon = tested on: HCT-15 colon
SK-MEL-2 melanoma = tested on: SK-MEL-2 melanoma
KM12 colon = tested on: KM12 colon
SK-MEL-5 melanoma = tested on: SK-MEL-5 melanoma
786-0 renal = tested on: 786-0 renal
HCT-116 colon = tested on: HCT-116 colon
U251 CNS = tested on: U251 CNS
SN12C renal = tested on: SN12C renal
A549 NSCLC = tested on: A549 NSCLC
NCI/ADR-RES ovarian = tested on: NCI/ADR-RES ovarian
OVCAR-4 ovarian = tested on: OVCAR-4 ovarian
A498 renal = tested on: A498 renal
RPMI-8226 leukemia = tested on: RPMI-8226 leukemia
BT-549 breast = tested on: BT-549 breast
DU-145 prostate = tested on: DU-145 prostate
SF-539 CNS = tested on: SF-539 CNS
HOP-92 NSCLC = tested on: HOP-92 NSCLC
K-562 leukemia = tested on: K-562 leukemia
COLO 205 colon = tested on: COLO 205 colon
UACC-62 melanoma = tested on: UACC-62 melanoma
SK-OV-3 ovarian = tested on: SK-OV-3 ovarian
OVCAR-5 ovarian = tested on: OVCAR-5 ovarian
PC-3 prostate = tested on: PC-3 prostate
NCI-H522 lung = tested on: NCI-H522 lung
SR leukemia = tested on: SR leukemia
CAKI-1 renal = tested on: CAKI-1 renal
HL-60(TB) leukemia = tested on: HL-60(TB) leukemia
SK-MEL-28 melanoma = tested on: SK-MEL-28 melanoma
NCI-H460 lung = tested on: NCI-H460 lung
OVCAR-8 ovarian = tested on: OVCAR-8 ovarian
MOLT-4 leukemia = tested on: MOLT-4 leukemia
NCI-H226 lung = tested on: NCI-H226 lung
UACC-257 melanoma = tested on: UACC-257 melanoma
HCC-2998 colon = tested on: HCC-2998 colon
SW-620 colon = tested on: SW-620 colon
MALME-3M melanoma = tested on: MALME-3M melanoma
OVCAR-3 ovarian = tested on: OVCAR-3 ovarian
SNB-75 CNS = tested on: SNB-75 CNS
NCI-H23 lung = tested on: NCI-H23 lung
IGROV1 ovarian = tested on: IGROV1 ovarian

`COc1cc2c(cc1OCCCN1CCN(C)CC1)N=C[C@@H]1CCCN1C2=O` was tested, and the TGI (M14 melanoma) was 4990 nM, the TGI (SNB-19 CNS) was > 100000 nM and the TGI (HT29 colon) was 4990 nM. The TGI (CCRF-CEM leukemia) was 10600 nM, the TGI (SF-268 CNS) was > 100000 nM and the TGI (MCF7 breast) was > 100000 nM. For the same compound, the TGI (MDA-MB-435) was 3770 nM, the TGI (ACHN renal) was 6120 nM and the TGI (UO-31 renal) was > 100000 nM. The TGI (EKVX NSCLC) was 6020 nM, the TGI (SF-295 CNS) was 5370 nM and the TGI (MDA-MB-231 breast) was 22300 nM. The TGI (LOX IMVI melanoma) was 4380 nM, the TGI (HS 578T breast) was > 100000 nM and the TGI (RXF 393 renal) was 6030 nM. For the same compound, the TGI (HOP-62 NSCLC) was 9640 nM, the TGI (TK-10 renal) was > 100000 nM and the TGI (HCT-15 colon) was 7020 nM. For the same compound, the TGI (SK-MEL-2 melanoma) was 7410 nM, the TGI (KM12 colon) was 4950 nM and the TGI (SK-MEL-5 melanoma) was 9290 nM. It also gave a TGI (786-0 renal) of 18300 nM, a TGI (HCT-116 colon) of 9470 nM and a TGI (U251 CNS) of 14500 nM. For the same compound, the TGI (SN12C renal) was > 100000 nM, the TGI (A549 NSCLC) was 5940 nM and the TGI (NCI/ADR-RES ovarian) was 21100 nM. For the same compound, the TGI (OVCAR-4 ovarian) was 4780 nM, the TGI (A498 renal) was 5750 nM and the TGI (RPMI-8226 leukemia) was 3680 nM. It also gave a TGI (BT-549 breast) of 6590 nM, a TGI (DU-145 prostate) of 5980 nM and a TGI (SF-539 CNS) of 4970 nM. It also gave a TGI (HOP-92 NSCLC) of 4650 nM, a TGI (K-562 leukemia) of 14200 nM and a TGI (COLO 205 colon) of 2250 nM. For the same compound, the TGI (UACC-62 melanoma) was 3750 nM, the TGI (SK-OV-3 ovarian) was 23200 nM and the TGI (OVCAR-5 ovarian) was 7010 nM. The TGI (PC-3 prostate) was 9780 nM, the TGI (NCI-H522 lung) was 518 nM and the TGI (SR leukemia) was 839 nM. For the same compound, the TGI (CAKI-1 renal) was 3120 nM, the TGI (HL-60(TB) leukemia) was 5370 nM and the TGI (SK-MEL-28 melanoma) was 3970 nM. For the same compound, the TGI (NCI-H460 lung) was > 100000 nM, the TGI (OVCAR-8 ovarian) was 8790 nM and the TGI (MOLT-4 leukemia) was 2530 nM. It also gave a TGI (NCI-H226 lung) of 4620 nM and a TGI (UACC-257 melanoma) of 5680 nM.

`CNCCCNc1nc2ccccc2c2c(=O)c3cc(F)ccc3sc12` gave a GI50 (M14 melanoma) of 1720 nM, a TGI (M14 melanoma) of 3220 nM and a GI50 (SNB-19 CNS) of 1650 nM. For the same compound, the TGI (SNB-19 CNS) was 3110 nM, the GI50 (HT29 colon) was 1650 nM and the TGI (HT29 colon) was 3450 nM. For the same compound, the GI50 (CCRF-CEM leukemia) was 1800 nM, the TGI (CCRF-CEM leukemia) was 4340 nM and the GI50 (HCC-2998 colon) was 1680 nM. It also gave a TGI (HCC-2998 colon) of 3290 nM, a GI50 (SF-268 CNS) of 1470 nM and a TGI (SF-268 CNS) of 2990 nM. The GI50 (MCF7 breast) was 1410 nM, the TGI (MCF7 breast) was 2950 nM and the GI50 (MDA-MB-435) was 1590 nM. It also gave a TGI (MDA-MB-435) of 2940 nM, a GI50 (ACHN renal) of 1490 nM and a TGI (ACHN renal) of 2810 nM. It also gave a GI50 (UO-31 renal) of 1310 nM, a TGI (UO-31 renal) of 2580 nM and a GI50 (EKVX NSCLC) of 1550 nM. For the same compound, the TGI (EKVX NSCLC) was 2940 nM, the GI50 (SF-295 CNS) was 1810 nM and the TGI (SF-295 CNS) was 3230 nM. For the same compound, the GI50 (SW-620 colon) was 1480 nM, the TGI (SW-620 colon) was 2850 nM and the GI50 (MDA-MB-231 breast) was 1330 nM. The TGI (MDA-MB-231 breast) was 2700 nM, the GI50 (MALME-3M melanoma) was 1550 nM and the TGI (MALME-3M melanoma) was 3010 nM. For the same compound, the GI50 (LOX IMVI melanoma) was 1470 nM, the TGI (LOX IMVI melanoma) was 2800 nM and the GI50 (HS 578T breast) was 1450 nM. It also gave a TGI (HS 578T breast) of 3110 nM, a GI50 (RXF 393 renal) of 1340 nM and a TGI (RXF 393 renal) of 2750 nM. The GI50 (HOP-62 NSCLC) was 1500 nM, the TGI (HOP-62 NSCLC) was 3230 nM and the GI50 (TK-10 renal) was 1800 nM. The TGI (TK-10 renal) was 3410 nM, the GI50 (HCT-15 colon) was 1420 nM and the TGI (HCT-15 colon) was 2760 nM. The GI50 (SK-MEL-2 melanoma) was 1940 nM, the TGI (SK-MEL-2 melanoma) was 3650 nM and the GI50 (KM12 colon) was 1630 nM. The TGI (KM12 colon) was 3100 nM, the GI50 (SK-MEL-5 melanoma) was 1690 nM and the TGI (SK-MEL-5 melanoma) was 3070 nM. It also gave a GI50 (786-0 renal) of 1440 nM, a TGI (786-0 renal) of 2870 nM and a GI50 (HCT-116 colon) of 1500 nM. For the same compound, the TGI (HCT-116 colon) was 2920 nM, the GI50 (SN12C renal) was 1610 nM and the TGI (SN12C renal) was 3050 nM. It also gave a GI50 (A549 NSCLC) of 1660 nM, a TGI (A549 NSCLC) of 3610 nM and a GI50 (OVCAR-4 ovarian) of 1690 nM. For the same compound, the TGI (OVCAR-4 ovarian) was 3250 nM, the GI50 (OVCAR-3 ovarian) was 1560 nM and the TGI (OVCAR-3 ovarian) was 2950 nM. The GI50 (A498 renal) was 1350 nM, the TGI (A498 renal) was 2700 nM and the GI50 (BT-549 breast) was 1790 nM. It also gave a TGI (BT-549 breast) of 3320 nM, a GI50 (DU-145 prostate) of 1660 nM and a TGI (DU-145 prostate) of 3030 nM. It also gave a GI50 (SF-539 CNS) of 1740 nM, a TGI (SF-539 CNS) of 3160 nM and a GI50 (HOP-92 NSCLC) of 1020 nM. It also gave a TGI (HOP-92 NSCLC) of 2420 nM, a GI50 (K-562 leukemia) of 1900 nM and a TGI (K-562 leukemia) of 5080 nM. It also gave a GI50 (COLO 205 colon) of 1770 nM, a TGI (COLO 205 colon) of 3780 nM and a GI50 (UACC-62 melanoma) of 1760 nM. It also gave a TGI (UACC-62 melanoma) of 3170 nM, a GI50 (OVCAR-5 ovarian) of 1620 nM and a TGI (OVCAR-5 ovarian) of 3030 nM. The GI50 (PC-3 prostate) was 1640 nM, the TGI (PC-3 prostate) was 3250 nM and the GI50 (NCI-H522 lung) was 1860 nM. For the same compound, the TGI (NCI-H522 lung) was 3730 nM, the GI50 (SNB-75 CNS) was 1410 nM and the TGI (SNB-75 CNS) was 2760 nM. The GI50 (NCI-H23 lung) was 1690 nM, the TGI (NCI-H23 lung) was 3150 nM and the GI50 (CAKI-1 renal) was 1480 nM. The TGI (CAKI-1 renal) was 2800 nM, the GI50 (IGROV1 ovarian) was 1370 nM and the TGI (IGROV1 ovarian) was 2760 nM. It also gave a GI50 (HL-60(TB) leukemia) of 1810 nM, a TGI (HL-60(TB) leukemia) of 3690 nM and a GI50 (SK-MEL-28 melanoma) of 1830 nM. It also gave a TGI (SK-MEL-28 melanoma) of 3250 nM, a GI50 (NCI-H460 lung) of 1380 nM and a TGI (NCI-H460 lung) of 2670 nM. For the same compound, the GI50 (NCI-H226 lung) was 1720 nM, the TGI (NCI-H226 lung) was 3280 nM and the GI50 (UACC-257 melanoma) was 1920 nM. It also gave a TGI (UACC-257 melanoma) of 3740 nM.
